# Measured values taken from US9150865B2 (priority 2010, dated 2015).
# Entries after “also recorded” stand apart in the source; their conditions may differ.
# Key:
# [1] = molecular target: T1, ADAM10 (Homo sapiens, UniProt O14672); format: cell-based
# [2] = molecular target: T1, ADAM10; format: cell-based; remark: listed apart in the source
# [3] = test system: A549 cells; format: cell-based, human
# [4] = molecular target: T1, ADAM10; format: cell-based; remark: listed apart in the source
# [5] = molecular target: T1, ADAM10; format: cell-based; remark: listed apart in the source
# [6] = test system: Human pulmonary artery endothelial cells (HPAECs); format: cell-based
# [7] = test system: BALB/c mice; conditions: mouse, in vivo
# [8] = test system: C57BL/6J mice; conditions: mouse, in vivo
# [9] = test system: S. aureus strain Newman; parameters: species or system Staphylococcus aureus; conditions: in vivo, ip
# [10] = test system: S. aureus Newman; parameters: species or system Staphylococcus aureus; conditions: in vivo
# [11] = test system: S. aureus USA300/LAC; parameters: species or system Staphylococcus aureus; conditions: in vivo
# [12] = molecular target: T1, ADAM10; format: cell-based; remark: listed apart in the source
# [13] = test system: A431 keratinocytes; format: cell-based
# [14] = test system: rabbit red cells; format: cell-based
# [15] = test system: ADAM10; conditions: cited from earlier work
# [16] = molecular target: T1, ADAM10; format: cell-based; remark: listed apart in the source
# T1 sequence (O14672 214-748 limits assumed): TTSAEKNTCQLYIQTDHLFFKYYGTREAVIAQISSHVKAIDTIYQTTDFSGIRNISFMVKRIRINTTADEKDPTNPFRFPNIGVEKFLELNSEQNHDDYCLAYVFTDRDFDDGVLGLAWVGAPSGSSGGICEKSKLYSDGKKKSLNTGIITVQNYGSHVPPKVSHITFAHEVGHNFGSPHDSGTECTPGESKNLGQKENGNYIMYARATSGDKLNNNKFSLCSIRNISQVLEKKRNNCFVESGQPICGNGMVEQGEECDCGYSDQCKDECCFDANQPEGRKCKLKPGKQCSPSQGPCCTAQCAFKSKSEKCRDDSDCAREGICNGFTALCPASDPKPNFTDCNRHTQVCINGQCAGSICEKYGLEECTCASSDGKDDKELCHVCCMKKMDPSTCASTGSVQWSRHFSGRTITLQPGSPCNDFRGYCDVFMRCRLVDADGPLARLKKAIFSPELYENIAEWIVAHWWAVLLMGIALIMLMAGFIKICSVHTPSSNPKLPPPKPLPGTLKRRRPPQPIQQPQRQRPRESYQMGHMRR
compound,measurement,setting,value
CNC(=O)[C@@H](NC(=O)[C@H](CCCc1ccccc1)[C@H](C)N(O)C=O)C(C)(C)C [GI254023X],Hla-induced E-cadherin cleavage,[1],nearly abrogated Hla-induced E-cadherin cleavage
same,Hla-induced loss of E-cadherin expression and disruption of cell junctions,[2],could be prevented; also recorded: is inhibited
same,toxin binding and oligomerization on the surface of A549 cells,[3],markedly impaired toxin binding and subsequent oligomerization; also recorded: impaired toxin binding and oligomerization on A549 cells
same,PLY-induced E-cadherin cleavage,[4],prevented PLY-induced E-cadherin cleavage
same,Hla-induced VE-cadherin cleavage,[5],prevented VE-cadherin cleavage
same,Hla-mediated barrier disruption (ECIS),[6],complete protection of HPAECs from Hla-mediated barrier disruption
same,vascular integrity / Evans blue dye extravasation,[7],"enhanced vascular integrity, manifest by limited dye extravasation"
same,"accumulation of cells and proteinaceous edema in the alveolar space (BAL cell count, protein)",[8],reduced the accumulation of both cells and proteinaceous edema in the alveolar space; also recorded: reduced alveolar exudates; also recorded: prevents Hla-induced lung epithelial barrier disruption in vivo
same,E-cadherin cleavage in response to Hla treatment in mice,[8]; ip,prevented E-cadherin cleavage in response to Hla treatment
same,protection against lethal S. aureus pneumonia (mortality curves),[9],"protected from rapidly lethal S. aureus pneumonia, displaying an increase in time to death and survival among some animals; also recorded: protected against lethal pneumonia"
same,survival of lethal challenge,[10],all experimental animals succumbed to the lethal challenge
same,appearance of illness,[10]; 200 mg/kg,less ill in appearance
same,time-to-death,"[10]; iv, 200 mg/kg",prolongation of time-to-death
same,abscess size,[11],reduction in abscess size
same,dermonecrotic skin lesions,[11],did not demonstrate dermonecrotic skin lesions
same,skin breakdown (dermonecrosis) over the site of infection,[11],completely prevented skin breakdown over the site of infection
same,full-length E-cadherin expression upon toxin treatment,[12],preservation of full-length E-cadherin expression
same,epithelial barrier function upon toxin treatment (ECIS),[13],preservation of full-length E-cadherin expression and epithelial barrier function
same,Hla-induced hemolysis,[14],blunted hemolysis
C[C@H](CCC(=O)O)C[C@H](C)C[C@H](C)C(=O)/C=C(\O)[C@H](C)C[C@H](C)C/C=C/[C@@H](C)[C@@H](O)[C@@H](C)[C@@H](O)C[C@@H]1CC[C@@](C)([C@H]2CC[C@@](C)([C@@H](C)O)O2)O1 [Ionomycin],E-cadherin cleavage induced by agent alone,[1],stimulating E-cadherin cleavage; also recorded: E-cadherin CTFs were generated; also recorded: enhancing cleavage
same,induction of ADAM10 metalloprotease activity,[15],potently induces the metalloprotease activity of ADAM10
Methyl-β-cyclodextrin,Hla-induced E-cadherin cleavage,[1],abrogated metalloprotease activation and E-cadherin cleavage
same,Hla-induced metalloprotease activation,[16],abrogated metalloprotease activation
"N—(R)-[2-hydroxyaminocarbonyl)methyl]-4-methylpentanoyl-L-napthylalanyl-L-alanine, 2-aminoethyl amide [TAPI-1]",Hla-induced E-cadherin cleavage (Western blot),[1],impaired Hla-induced E-cadherin cleavage
same,surface expression of E-cadherin after Hla (immunofluorescence),[1],preserved surface expression of E-cadherin
same,Hla-induced VE-cadherin cleavage,[5],prevented VE-cadherin cleavage
same,barrier function after Hla (ECIS),[6],maintenance of barrier function; also recorded: did not result in loss of barrier function
